This note sets out measurements from PMC7138817, “The [4Fe-4S] cluster of sulfurtransferase TtuA desulfurizes TtuB during tRNA modification in Thermus thermophilus” (Communications Biology, 2020).

The star is where a group is joined. thiocarboxylate = C-terminal -COSH in place of -COOH, S*

The target of assay [1] is T1, holo-TthTtuA–TthTtuB complex (Thermus thermophilus, UniProt Q72LF3+Q72LF4).
T1 construct: gene ttuA; co-expressed in E. coli B834(DE3) from pETDuet-1; His6-tag plus four residues at N-terminus of TtuB, TtuA untagged; TtuB-COOH form; TtuA-TtuB heterodimers
The assay can be described thus: X-ray crystal structure, […] Å. To be noted: reconstituted with ferric chloride and sulfide, anaerobic; bound by three Cys of TtuA, unique Fe coordinated by C-terminal carboxylate of TtuB. The assay is classed as binding.

The target in another assay is T2, holo-TtuA (Thermus thermophilus, UniProt Q72LF3).
T2 construct: TtuA without TtuB, prepared as in an earlier publication
T2 sequence (Q72LF3 1-321): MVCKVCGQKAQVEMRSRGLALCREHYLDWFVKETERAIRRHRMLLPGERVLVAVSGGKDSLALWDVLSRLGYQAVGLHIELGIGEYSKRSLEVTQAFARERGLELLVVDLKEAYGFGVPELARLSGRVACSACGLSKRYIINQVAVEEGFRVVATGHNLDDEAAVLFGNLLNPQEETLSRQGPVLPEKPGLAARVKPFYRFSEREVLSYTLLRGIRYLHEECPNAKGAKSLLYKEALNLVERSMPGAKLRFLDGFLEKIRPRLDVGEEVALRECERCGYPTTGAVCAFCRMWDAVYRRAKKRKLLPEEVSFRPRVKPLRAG
Nature of the assay: EPR spectroscopy, X-band, […] K. To be noted: dithionite-reduced, anaerobic, no TtuB. The assay is classed as binding.

Assay [2] concerns the target T3, holo-TtuA (purified alone, with [4Fe-4S] cluster) used for EPR with added TtuB-COSH (Thermus thermophilus, UniProt Q72LF3 1-321).
T3 construct: TtuA, Thermus thermophilus; carries a [4Fe-4S] cluster, reduced with sodium dithionite for EPR; also called DT-reduced TtuA; source: purified
T3 sequence (looked up): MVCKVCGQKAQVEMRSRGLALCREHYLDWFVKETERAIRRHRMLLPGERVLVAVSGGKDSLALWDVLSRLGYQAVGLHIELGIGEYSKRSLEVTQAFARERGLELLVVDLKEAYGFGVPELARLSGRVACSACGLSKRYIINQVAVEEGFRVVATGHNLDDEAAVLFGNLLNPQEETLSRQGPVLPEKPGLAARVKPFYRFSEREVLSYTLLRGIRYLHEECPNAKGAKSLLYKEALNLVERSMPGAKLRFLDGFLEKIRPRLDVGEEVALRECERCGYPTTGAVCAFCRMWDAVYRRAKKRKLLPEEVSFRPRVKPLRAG
Nature of the assay: EPR spectroscopy; purified holo-TtuA mixed with TtuB-COSH (molar ratio 1:3, 0.6 mM:2.0 mM), incubated at 298 K for 5 min, reduced with sodium dithionite, frozen; X-band spectra at 7, 12 and 29 K; compared with TtuA without TtuB-COSH. The settings on record: both partners purified.

Regarding `[S]12[Fe]3[S]4[Fe]1[S]1[Fe]2[S]3[Fe]41` [[4Fe-4S] cluster], in assay [1], the “X-ray crystal structure, 2.2 Å” value was “unique Fe site of the [4Fe-4S] cluster and the C-terminus of TtuB was observed”. For the same molecule, the “EPR spectroscopy, X-band, 12 K” value at holo-TtuA is “TtuA in the absence of TtuB-COSH is the typical rhombic signal of the [4Fe-4S] cluster”.

B1: TtuB-COSH (TtuB with thiocarboxylated C-terminus) (natural protein, Thermus thermophilus, UniProt Q72LF4 1-65, looked up)
chain: MRVVLRLPERKEVEVKGNRPLREVLEELGLNPETVVAVRGEELLTLEDEVREEDTLEVLSAISGG-thiocarboxylate
notes: TtuB, ubiquitin-like sulfur donor protein, Thermus thermophilus; also called thiocarboxylated TtuB
As to B1, the binding result in assay [2] is listed as “binds”.
